≈ marks a conversion by molar mass, not a printed value. Blank lines part the entries; values can stand above or below the compound they belong to.
Tests used:
Assay in all cases: ≥ marks a high value that may be exact or a test limit, other limits are often not marked, values filed in µg/mL are converted to µM
Acinetobacter baumannii = test system: Acinetobacter baumannii
[1] = test system: Acinetobacter baumannii ATCC 19606
[2] = test system: Escherichia coli ATCC 25922
[3] = test system: Klebsiella pneumoniae ATCC 13883
[4] = test system: Pseudomonas aeruginosa PAO1
[5] = test system: Staphylococcus aureus USA 300
[6] = test system: Staphylococcus aureus ATCC 25923
[7] = test system: Pseudomonas aeruginosa ATCC 27853
[8] = test system: Staphylococcus aureus ATCC 33591
Staphylococcus aureus = test system: Staphylococcus aureus
Candida albicans = test system: Candida albicans
Escherichia coli = test system: Escherichia coli
[9] = test system: Candida albicans ATCC 10231
[10] = test system: Bacillus subtilis ATCC 6633
[11] = test system: Enterococcus faecalis ATCC 29212
[12] = test system: Staphylococcus aureus ATCC 29213

Structure (SMILES): C[C@H](NC(=O)[C@H](CCCCN)NC(=O)[C@H](Cc1ccc(O)cc1)NC(=O)[C@H](CCCCN)NC(=O)[C@H](CCCCN)NC(=O)[C@H](CCCCN)NC(=O)[C@H](Cc1ccc(O)cc1)NC(=O)[C@H](CCCN=C(N)N)NC(=O)[C@H](CCCCN)NC(=O)[C@@H](N)CCCCN)C(=O)N[C@@H](Cc1ccc(O)cc1)C(=O)N[C@@H](CCCCN)C(=O)N1CCC[C@H]1C(=O)N[C@@H](Cc1ccc(O)cc1)C(=O)N[C@@H](CCCCN)C(=O)N[C@@H](CCCCN)C(=O)N[C@@H](CCCCN)C(=O)N[C@@H](CCCCN)C(=O)N[C@@H](CCCCN)C(=O)N[C@@H](Cc1ccccc1)C(N)=O [KKRYKKKYKAYKPYKKKKKF]
MIC [6]: 35.4 µM (≈ 94.7 µg/mL) | MIC [2]: 12.5 µM (≈ 33.5 µg/mL) | MIC [7]: 100 µM (≈ 268 µg/mL) | MIC [8]: ≥ 50 µM

Structure (SMILES): CC[C@H](C)[C@H](NC(=O)[C@H](Cc1cnc[nH]1)NC(=O)[C@H](CCCCN)NC(=O)[C@@H](NC(=O)[C@@H](NC(=O)[C@H](CC(=O)O)NC(=O)[C@H](CC(C)C)NC(=O)[C@H](Cc1ccccc1)NC(=O)CN)C(C)C)C(C)C)C(=O)NCC(=O)N[C@@H](CCCCN)C(=O)N[C@@H](C)C(=O)N[C@@H](C)C(=O)N[C@@H](CC(C)C)C(=O)NCC(=O)N[C@@H](C)C(=O)N[C@H](C(=O)N[C@H](C(=O)N[C@@H](Cc1cnc[nH]1)C(=O)N[C@@H](CC(C)C)C(=O)N[C@H](C(=O)N[C@@H](CC(N)=O)C(=O)N[C@@H](CCC(N)=O)C(N)=O)[C@@H](C)CC)[C@@H](C)O)C(C)C [GFLDVVKHIGKAALGAVTHLINQ]
MIC (Staphylococcus aureus): 13.3 µM (≈ 32 µg/mL) | MIC (Escherichia coli): 13.3 µM (≈ 32 µg/mL) | MIC (Candida albicans): 13.3 µM (≈ 32 µg/mL)

Structure (SMILES): CC(C)C[C@H](NC(=O)[C@H](CC(C)C)NC(=O)[C@H](CCCCN)NC(=O)CNC(=O)[C@H](CC(C)C)NC(=O)[C@H](CC(C)C)NC(=O)[C@H](CO)NC(=O)[C@H](C)NC(=O)[C@H](CC(C)C)NC(=O)[C@H](CO)NC(=O)[C@H](CC(C)C)NC(=O)[C@H](CC(C)C)NC(=O)CN)C(N)=O [GLLSLASLLGKLL]
MIC [2]: 2.16 µM (≈ 2.8 µg/mL) | MIC [3]: 3.1 µM (≈ 4.02 µg/mL) | MIC [4]: 8.8 µM (≈ 11.4 µg/mL) | MIC [5]: 0.78 µM (≈ 1.01 µg/mL)

Structure (SMILES): C[C@H](N)C(=O)N[C@@H](CCCN=C(N)N)C(=O)N[C@@H](Cc1c[nH]c2ccccc12)C(=O)N[C@@H](CCCN=C(N)N)C(=O)N[C@@H](Cc1ccccc1)C(=O)N[C@@H](CCCCN)C(=O)N[C@@H](Cc1c[nH]c2ccccc12)C(=O)N[C@@H](C)C(=O)N[C@@H](CCCCN)C(=O)N[C@@H](CCCCN)C(=O)O [ARWRFKWAKK]
MIC [6]: 54.5 µM (≈ 75 µg/mL) | MIC [2]: 54.5 µM (≈ 75 µg/mL) | MIC [9]: 54.5 µM (≈ 75 µg/mL) | MIC [10]: ≥ 54.5 µM

Structure (SMILES): CC[C@H](C)[C@H](NC(=O)[C@H](CCCCN)NC(=O)[C@@H](NC(=O)[C@H](CCC(N)=O)NC(=O)[C@@H](N)CCCN=C(N)N)[C@@H](C)CC)C(=O)N[C@@H](Cc1c[nH]c2ccccc12)C(=O)N[C@@H](Cc1ccccc1)C(=O)N[C@@H](CCC(N)=O)C(=O)N[C@@H](CC(N)=O)C(=O)N[C@@H](CCCN=C(N)N)C(=O)N[C@@H](CCCN=C(N)N)C(=O)N[C@@H](CC(C)C)C(=O)N[C@@H](CCCCN)C(=O)N[C@@H](Cc1c[nH]c2ccccc12)C(=O)N[C@@H](CCCCN)C(=O)N[C@@H](CCCCN)C(N)=O [RQIKIWFQNRRLKWKK]
MIC [2]: 32 µM (≈ 71.3 µg/mL) | MIC [8]: ≥ 64 µM

Structure (SMILES): CC(C)C[C@H](NC(=O)[C@H](CC(C)C)NC(=O)[C@H](CCCCN)NC(=O)[C@H](CCCCN)NC(=O)[C@H](CC(C)C)NC(=O)[C@H](CS)NC(=O)[C@H](CCCCN)NC(=O)[C@H](CC(C)C)NC(=O)[C@@H](N)Cc1ccccc1)C(N)=O [FLKCLKKLL]
MIC [6]: 57.9 µM (≈ 63.9 µg/mL) | MIC [2]: 14.5 µM (≈ 16 µg/mL) | MIC [7]: 14.5 µM (≈ 16 µg/mL) | MIC [1]: 14.5 µM (≈ 16 µg/mL)

Other lines, results leading:

MIC (Acinetobacter baumannii): 3.14 µM (≈ 10 µg/mL) | MIC [1]: 2.22 µM (≈ 7.07 µg/mL)
Structure (SMILES): CC[C@H](C)[C@H](NC(=O)[C@H](CCCN=C(N)N)NC(=O)[C@@H](NC(=O)[C@@H](NC(=O)[C@@H]1CCCN1C(=O)[C@@H](NC(=O)[C@@H](NC(=O)[C@@H](NC(=O)[C@@H]1CCCN1C(=O)CNC(=O)[C@H](Cc1ccc(O)cc1)NC(=O)[C@H](CCCCN)NC(=O)[C@H](CCCCN)NC(=O)[C@H](Cc1c[nH]c2ccccc12)NC(=O)[C@H](C)NC(=O)[C@H](CCCN=C(N)N)NC(=O)[C@H](CC(C)C)NC(=O)[C@@H](NC(=O)[C@H](CCCCN)NC(=O)[C@H](CCCN=C(N)N)NC(=O)CNC(=O)[C@H](CC(C)C)NC(=O)[C@H](CCCCN)NC(=O)[C@H](CCCN=C(N)N)NC(=O)[C@H](CC(C)C)NC(=O)CNC(=O)[C@@H](N)CCCCN)[C@@H](C)CC)[C@@H](C)CC)[C@@H](C)CC)C(C)C)[C@@H](C)CC)[C@@H](C)CC)C(=O)O [KGLRKLGRKILRAWKKYGPIIVPIIRI]

MIC [2]: > 25 µM | MIC [3]: 25 µM (≈ 30.3 µg/mL) | MIC [4]: > 25 µM | MIC [5]: 25 µM (≈ 30.3 µg/mL)
Structure (SMILES): CC(C)C[C@H](NC(=O)[C@H](C)NC(=O)[C@H](CCCCN)NC(=O)CNC(=O)[C@H](CC(C)C)NC(=O)[C@H](C)NC(=O)[C@H](CCCCN)NC(=O)[C@H](CC(C)C)NC(=O)[C@H](C)NC(=O)[C@H](CO)NC(=O)[C@H](CC(C)C)NC(=O)[C@H](C)NC(=O)CN)C(N)=O [GALSALKALGKAL]

MIC [2]: 25 µM (≈ 31.3 µg/mL) | MIC [3]: 25 µM (≈ 31.3 µg/mL) | MIC [4]: > 25 µM | MIC [5]: 25 µM (≈ 31.3 µg/mL)
Structure (SMILES): CC(C)C[C@H](NC(=O)[C@H](CC(C)C)NC(=O)[C@H](CCCCN)NC(=O)CNC(=O)[C@H](CC(C)C)NC(=O)[C@H](C)NC(=O)[C@H](CCCCN)NC(=O)[C@H](CC(C)C)NC(=O)[C@H](C)NC(=O)[C@H](CO)NC(=O)[C@H](CC(C)C)NC(=O)[C@H](C)NC(=O)CN)C(N)=O [GALSALKALGKLL]

MIC (Staphylococcus aureus): > 69.3 µM | MIC (Candida albicans): 34.7 µM (≈ 50 µg/mL)
Structure (SMILES): CC[C@H](C)[C@H](NC(=O)[C@H](CCCN=C(N)N)NC(=O)[C@H](CC(C)C)NC(=O)CNC(=O)[C@H](CCCCN)NC(=O)CNC(=O)[C@@H]1CCCN1C(=O)[C@H](CC(C)C)NC(=O)[C@H](CC(N)=O)NC(=O)[C@@H]1CCCN1C(=O)[C@H](CO)NC(=O)[C@H](Cc1ccccc1)NC(=O)CN)C(=O)N[C@@H](CO)C(=O)O [GFSPNLPGKGLRIS]

MIC (Staphylococcus aureus): 100 µM (≈ 268 µg/mL) | MIC (Escherichia coli): 20 µM (≈ 53.6 µg/mL) | MIC (Candida albicans): 200 µM (≈ 536 µg/mL)
Structure (SMILES): CC[C@H](C)[C@H](NC(=O)[C@H](CCCCN)NC(=O)[C@H](CS)NC(=O)[C@H](C)NC(=O)[C@@H](NC(=O)[C@H](Cc1ccccc1)NC(=O)CNC(=O)[C@H](CC(C)C)NC(=O)CNC(=O)[C@@H](NC(=O)[C@H](CCCCN)NC(=O)CNC(=O)[C@H](CC(C)C)NC(=O)[C@H](CC(N)=O)NC(=O)[C@H](CCCN=C(N)N)NC(=O)[C@H](CC(C)C)NC(=O)[C@@H](NC(=O)[C@H](CO)NC(=O)[C@H](CC(C)C)NC(=O)[C@H](CCSC)NC(=O)[C@@H](N)CO)C(C)C)C(C)C)C(C)C)C(=O)N[C@@H](CC(N)=O)C(=O)N[C@@H](CCCCN)C(=O)N[C@@H](CCC(N)=O)C(=O)N[C@@H](CS)C(=O)O [SMLSVLRNLGKVGLGFVACKINKQC]

MIC [11]: > 13.5 µM | MIC [2]: 5.06 µM (≈ 12 µg/mL) | MIC [7]: 6.74 µM (≈ 16 µg/mL) | MIC [12]: > 13.5 µM | MIC (Acinetobacter baumannii): 13.5 µM (≈ 32 µg/mL)
Structure (SMILES): CC(C)C[C@H](NC(=O)[C@H](CC(C)C)NC(=O)[C@H](CCCNC(=N)N)NC(=O)[C@H](CCCCN)NC(=O)[C@H](CCCNC(=N)N)NC(=O)[C@H](CC(C)C)NC(=O)[C@H](CCCCN)NC(=O)[C@H](CCCNC(=N)N)NC(=O)[C@H](CC(C)C)NC(=O)[C@H](CC(C)C)NC(=O)[C@H](CC(C)C)NC(=O)[C@H](CCCNC(=N)N)NC(=O)[C@H](CCCCN)NC(=O)[C@H](CCCNC(=N)N)NC(=O)[C@H](CC(C)C)NC(=O)[C@H](CCCCN)NC(=O)[C@H](CCCNC(=N)N)NC(=O)[C@@H](N)CC(C)C)C(=O)O [LRKLRKRLLLRKLRKRLL]

MIC [2]: 32 µM (≈ 68.6 µg/mL) | MIC [8]: ≥ 32 µM
Structure (SMILES): CC[C@H](C)[C@H](NC(=O)[C@H](CCC(N)=O)NC(=O)[C@H](CC(C)C)NC(=O)[C@H](CCC(N)=O)NC(=O)[C@@H](NC(=O)[C@H](CCCCN)NC(=O)[C@H](Cc1ccccc1)NC(=O)[C@H](Cc1c[nH]c2ccccc12)NC(=O)[C@@H](N)CCCCN)[C@@H](C)CC)C(=O)N[C@@H](CCCCN)C(=O)N[C@@H](CCCCN)C(=O)N[C@@H](Cc1c[nH]c2ccccc12)C(=O)N[C@@H](CCCCN)C(=O)N[C@@H](CC(N)=O)C(=O)N[C@@H](CCCCN)C(=O)N[C@@H](CCCCN)C(N)=O [KWFKIQLQIKKWKNKK]

MIC [2]: > 25 µM | MIC [3]: 25 µM (≈ 27.8 µg/mL) | MIC [4]: > 25 µM | MIC [5]: 25 µM (≈ 27.8 µg/mL)
Structure (SMILES): CC(C)C[C@H](NC(=O)[C@H](CC(C)C)NC(=O)[C@H](CCCCN)NC(=O)CNC(=O)[C@H](CC(C)C)NC(=O)[C@H](CO)NC(=O)[C@H](CC(C)C)NC(=O)[C@H](CO)NC(=O)[C@H](CC(C)C)NC(=O)[C@H](CC(C)C)NC(=O)CN)C(N)=O [GLLSLSLGKLL]

From DBAASP
